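Each compound was tested at five concentrations against cells in 96-well plates for 48 hours. At the TGI there is no net growth.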
Columns and labels:
Assay in all cases: growth of human tumour cells (NCI), 48 h
HCC-2998 colon = tested on: HCC-2998 colon
SK-MEL-2 melanoma = tested on: SK-MEL-2 melanoma
RXF-631 renal = tested on: RXF-631 renal
OVCAR-8 ovarian = tested on: OVCAR-8 ovarian
SNB-75 CNS = tested on: SNB-75 CNS
IGROV1 ovarian = tested on: IGROV1 ovarian
CCRF-CEM leukemia = tested on: CCRF-CEM leukemia
M14 melanoma = tested on: M14 melanoma
A498 renal = tested on: A498 renal
SNB-78 CNS = tested on: SNB-78 CNS
CAKI-1 renal = tested on: CAKI-1 renal
TK-10 renal = tested on: TK-10 renal
DMS 114 small cell lung = tested on: DMS 114 small cell lung
HCT-15 colon = tested on: HCT-15 colon
SK-OV-3 ovarian = tested on: SK-OV-3 ovarian
RXF 393 renal = tested on: RXF 393 renal
UO-31 renal = tested on: UO-31 renal
MALME-3M melanoma = tested on: MALME-3M melanoma
DLD-1 colon = tested on: DLD-1 colon
SF-539 CNS = tested on: SF-539 CNS
LOX IMVI melanoma = tested on: LOX IMVI melanoma
HT29 colon = tested on: HT29 colon
KM20L2 colon = tested on: KM20L2 colon
COLO 205 colon = tested on: COLO 205 colon
SW-620 colon = tested on: SW-620 colon
K-562 leukemia = tested on: K-562 leukemia
NCI-H522 lung = tested on: NCI-H522 lung
A549 NSCLC = tested on: A549 NSCLC
NCI-H23 lung = tested on: NCI-H23 lung
RPMI-8226 leukemia = tested on: RPMI-8226 leukemia
U251 CNS = tested on: U251 CNS
KM12 colon = tested on: KM12 colon
HL-60(TB) leukemia = tested on: HL-60(TB) leukemia
LXFL 529 NSCLC = tested on: LXFL 529 NSCLC
OVCAR-4 ovarian = tested on: OVCAR-4 ovarian
UACC-62 melanoma = tested on: UACC-62 melanoma
ACHN renal = tested on: ACHN renal
SK-MEL-28 melanoma = tested on: SK-MEL-28 melanoma
MOLT-4 leukemia = tested on: MOLT-4 leukemia
SF-295 CNS = tested on: SF-295 CNS
OVCAR-5 ovarian = tested on: OVCAR-5 ovarian
XF 498 CNS = tested on: XF 498 CNS
UACC-257 melanoma = tested on: UACC-257 melanoma
SN12C renal = tested on: SN12C renal
SF-268 CNS = tested on: SF-268 CNS
DMS 273 small cell lung = tested on: DMS 273 small cell lung
EKVX NSCLC = tested on: EKVX NSCLC
SK-MEL-5 melanoma = tested on: SK-MEL-5 melanoma
SNB-19 CNS = tested on: SNB-19 CNS
OVCAR-3 ovarian = tested on: OVCAR-3 ovarian
786-0 renal = tested on: 786-0 renal
HOP-18 NSCLC = tested on: HOP-18 NSCLC
SR leukemia = tested on: SR leukemia
M19-MEL melanoma = tested on: M19-MEL melanoma
HOP-92 NSCLC = tested on: HOP-92 NSCLC
NCI-H226 lung = tested on: NCI-H226 lung
HOP-62 NSCLC = tested on: HOP-62 NSCLC
NCI-H460 lung = tested on: NCI-H460 lung
HCT-116 colon = tested on: HCT-116 colon

Measured: TGI

COC(=O)C(C)NP(=O)(N1CC1)N1CC1 (configuration not stated)
not listed: OVCAR-3 ovarian | 786-0 renal | HOP-18 NSCLC | SR leukemia | M19-MEL melanoma | HOP-92 NSCLC | NCI-H226 lung | HOP-62 NSCLC | NCI-H460 lung | HCT-116 colon
> 100 µM: all other assays above

CCCCOC(=O)NC(=O)c1cn(CCCOC(=O)CCCCCCCCC(=O)OCCCn2cc(C(=O)NC(=O)OCCCC)c(=O)[nH]c2=O)c(=O)[nH]c1=O
not listed: SNB-75 CNS | A498 renal | SNB-78 CNS | CAKI-1 renal | NCI-H522 lung | DMS 273 small cell lung
> 100 µM: all other assays above
